Like-named read-outs stand apart in the source and are kept apart here.
How the values were obtained:
Assay type in all cases: cell-based
K562 = assay: Cytostatic/cytotoxic MTT assay, K562; settings: Homo sapiens, read-out: MTT, IC50 K562
Procedure, shortened: (§1)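 Following 24 h stabilisation, wells received compound as four-fold serial dilutions (duplicates) and were incubated 72 h. MTT conversion (1-4 h) was quantified at 540 nm; the concentration giving 50% growth inhibition was reported.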

CCRF-CEM = assay: Cytostatic/cytotoxic MTT assay, CCRF-CEM; settings: Homo sapiens, read-out: MTT, IC50 CCRF-CEM
Procedure, shortened: as §1

HeLa S3 = assay: XTT cytotoxicity assay, HeLa S3; settings: Homo sapiens, read-out: XTT, IC50 HeLa S3
Procedure, shortened: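 Cells seeded at 10,000 per well, compounds added after 24 h and incubated 72 h, then XTT (with N-methyl dibenzopyrazine methyl sulfate) for 2 h; absorbance at 495 nm. IC50 by non-linear regression.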

[1] = system: HCV subtype 2A replicon in Huh-7 cells; assay: HCV sub-genomic reporter replicon assay, subtype 2A; settings: Hepatitis C virus
Protocol: Compounds were also tested in Huh-7 cells harboring sub-genomic reporter replicons derived from HCV subtypes 1B and 2A (ref.: Stuyver, L. J.; Whitaker, T.; McBrayer, T. R.; Hernandez-Santiago, B. I.; Lostia, S.; Tharnish, P. M.; Ramesh, M.; Chu, C. K.; Jordan, R.; Shi, J. X.; Rachakonda, S.; Watanabe, K. A.; Otto, M. J.; Schinazi, R. F. Antimicrob. Agents Chemother. 2003, 47, 244-254).

HCT116p53-/- = assay: Cytostatic/cytotoxic MTT assay, HCT116p53-/-; settings: Homo sapiens, read-out: MTT, IC50 HCT116 p53-/-
Procedure, shortened: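 Human cancer lines, including daunorubicin-resistant CEM-DNR (mrp-1/mdr-1 overexpressing) and paclitaxel-resistant K562-TAX (mdr-1), seeded 25,000-30,000 cells/well, pre-incubated 24 h, then treated in duplicate with four-fold dilutions for 72 h at 37° C, 5% CO2. MTT read-out at 540 nm; IC50 from dose-response curves.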

BJ = assay: Cytostatic/cytotoxic MTT assay, BJ fibroblasts; settings: Homo sapiens, 72 h, read-out: MTT, IC50 BJ
Procedure, shortened: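 Optical density at 540 nm of SDS-dissolved formazan gives the read-out, with IC50 derived from dose-response curves. Cells (25,000-30,000/well) are treated for 72 h at 37 °C with four-fold compound dilutions, tested in duplicate, then stained with MTT for 1-4 h.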

[2] = Huh-7 cells, HCV subtype 2A replicon, read-out: Replicon 2A EC50
[3] = Huh-7, read-out: Replicon 2A EC50

Row | SMILES | IC50 (K562; K562, 72 h incubation) | IC50 (CCRF-CEM; 72 h incubation) | IC50 (HeLa S3; HeLa S3, 72 h incubation) | EC50 [1, 2] | IC50 (HCT116p53-/-; HCT-116, 72 h incubation) | IC50 (BJ; non-malignant fibroblasts) | IC50 (K562; K562, 72 h) | IC50 (CCRF-CEM; 72 h) | IC50 (HeLa S3; HeLa S3, 72 h) | EC50 [1, 3] | IC50 (HCT116p53-/-; HCT-116, 72 h) | IC50 (BJ)
1 | CN(C)c1ncnc2c1c(-c1ccoc1)cn2[C@@H]1O[C@H](CO)[C@@H](O)[C@H]1O [Compound 4b, 4-Dimethylamino-5-(furan-3-yl)-7-(β-D-ribofuranosyl)-7H-pyrrolo[2,3-d]pyrimidine] | 1.54 µM | 13.3 µM | 9.06 µM | > 44 µM | > 20 µM | 99.2 µM | – | – | – | – | – | –
2 | CN(C)c1ncnc2c1c(-c1cccs1)cn2[C@@H]1O[C@H](CO)[C@@H](O)[C@H]1O [Compound 4c, 4-Dimethylamino-7-(β-D-ribofuranosyl)-5-(thiophen-2-yl)-7H-pyrrolo[2,3-d]pyrimidine] | > 20 µM | > 20 µM | > 20 µM | > 44 µM | > 20 µM | > 100 µM | – | – | – | – | – | –
3 | CN(C)c1ncnc2c1c(-c1ccsc1)cn2[C@@H]1O[C@H](CO)[C@@H](O)[C@H]1O [Compound 4d, 4-Dimethylamino-7-(β-D-ribofuranosyl)-5-(thiophen-3-yl)-7H-pyrrolo[2,3-d]pyrimidine] | 0.53 µM | 3.48 µM | > 15 µM | > 44 µM | > 20 µM | > 100 µM | – | – | – | – | – | –
4 | CN(C)c1ncnc2c1c(-c1ccccc1)cn2[C@@H]1O[C@H](CO)[C@@H](O)[C@H]1O [Compound 4e, 4-Dimethylamino-5-phenyl-7-(β-D-ribofuranosyl)-7H-pyrrolo[2,3-d]pyrimidine] | > 20 µM | > 20 µM | > 20 µM | > 44 µM | > 20 µM | > 100 µM | – | – | – | – | – | –
5 | CN(C)c1ncnc2c1c(-c1cc3ccccc3o1)cn2[C@@H]1O[C@H](CO)[C@@H](O)[C@H]1O [Compound 4f, 5-(Benzofuran-2-yl)-4-dimethylamino-7-(β-D-ribofuranosyl)-7H-pyrrolo[2,3-d]pyrimidine] | > 20 µM | > 20 µM | > 20 µM | > 44 µM | > 20 µM | > 100 µM | – | – | – | – | – | –
6 | C#Cc1cn([C@@H]2O[C@H](CO)[C@@H](O)[C@H]2O)c2ncnc(N(C)C)c12 [Compound 4g, 4-Dimethylamino-5-ethynyl-7-(β-D-ribofuranosyl)-7H-pyrrolo[2,3-d]pyrimidine] | 0.11 µM | 0.09 µM | 0.81 µM | 0.1 µM | 0.29 µM | 0.41 µM | – | – | – | – | – | –
7 | CN(C)c1ncnc2c1c(I)cn2[C@@H]1O[C@H](CO)[C@@H](O)[C@H]1O [Compound 4h, 4-Dimethylamino-5-iodo-7-(β-D-ribofuranosyl)-7H-pyrrolo[2,3-d]pyrimidine] | 0.07 µM | 1.59 µM | 0.19 µM | > 44 µM | 0.12 µM | 45.7 µM | – | – | – | – | – | –
8 | Cc1ncnc2c1c(-c1ccco1)cn2[C@@H]1O[C@H](CO)[C@@H](O)[C@H]1O [Compound 5a, 5-(Furan-2-yl)-4-methyl-7-(β-D-ribofuranosyl)-7H-pyrrolo[2,3-d]pyrimidine] | 0.04 µM | 0.04 µM | 1.33 µM | 0.15 µM | 0.04 µM | 0.07 µM | – | – | – | – | – | –
9 | Cc1ncnc2c1c(-c1ccoc1)cn2[C@@H]1O[C@H](CO)[C@@H](O)[C@H]1O [Compound 5b, 5-(Furan-3-yl)-4-methyl-7-(β-D-ribofuranosyl)-7H-pyrrolo[2,3-d]pyrimidine] | > 20 µM | > 20 µM | > 20 µM | > 44 µM | > 20 µM | 89.2 µM | – | – | – | – | – | –
10 | Cc1ncnc2c1c(-c1cccs1)cn2[C@@H]1O[C@H](CO)[C@@H](O)[C@H]1O [Compound 5c, 4-Methyl-7-(β-D-ribofuranosyl)-5-(thiophen-2-yl)-7H-pyrrolo[2,3-d]pyrimidine] | > 20 µM | > 20 µM | > 15 µM | > 44 µM | > 20 µM | > 100 µM | – | – | – | – | – | –
11 | Cc1ncnc2c1c(-c1ccsc1)cn2[C@@H]1O[C@H](CO)[C@@H](O)[C@H]1O [Compound 5d, 4-Methyl-7-(β-D-ribofuranosyl)-5-(thiophen-3-yl)-7H-pyrrolo[2,3-d]pyrimidine] | 0.32 µM | 11.2 µM | 14.3 µM | > 44 µM | 1.43 µM | 96.9 µM | – | – | – | – | – | –
12 | Cc1ncnc2c1c(-c1ccccc1)cn2[C@@H]1O[C@H](CO)[C@@H](O)[C@H]1O [Compound 5e, 4-Methyl-5-phenyl-7-(β-D-ribofuranosyl)-7H-pyrrolo[2,3-d]pyrimidine] | > 20 µM | > 20 µM | > 20 µM | > 44 µM | 95.3 µM | > 100 µM | – | – | – | – | – | –
13 | Cc1ncnc2c1c(-c1cc3ccccc3o1)cn2[C@@H]1O[C@H](CO)[C@@H](O)[C@H]1O [Compound 5f, 5-(Benzofuran-2-yl)-4-methyl-7-(β-D-ribofuranosyl)-7H-pyrrolo[2,3-d]pyrimidine] | 19.5 µM | 17.3 µM | > 20 µM | 40.2 µM | > 20 µM | 93.9 µM | – | – | – | – | – | –
14 | C#Cc1cn([C@@H]2O[C@H](CO)[C@@H](O)[C@H]2O)c2ncnc(C)c12 [Compound 5g, 5-Ethynyl-4-methyl-7-(β-D-ribofuranosyl)-7H-pyrrolo[2,3-d]pyrimidine] | 6.92 µM | 5.6 µM | 14.7 µM | 21.6 µM | > 20 µM | 0.05 µM | – | – | – | – | – | –
15 | COc1ncnc2c1ccn2[C@@H]1O[C@H](CO)[C@@H](O)[C@H]1O [RC1, reference compound] | > 20 µM | > 20 µM | > 20 µM | > 44 µM | > 20 µM | > 100 µM | – | – | – | – | – | –
16 | CSc1ncnc2c1ccn2[C@@H]1O[C@H](CO)[C@@H](O)[C@H]1O [RC2, reference compound] | – | – | – | – | – | – | > 20 µM | > 20 µM | 11.9 µM | > 44 µM | > 20 µM | > 100 µM
17 | CNc1ncnc2c1ccn2[C@@H]1O[C@H](CO)[C@@H](O)[C@H]1O [RC3, reference compound] | > 20 µM | > 20 µM | > 20 µM | > 44 µM | > 20 µM | 91.4 µM | – | – | – | – | – | –
18 | CN(C)c1ncnc2c1ccn2[C@@H]1O[C@H](CO)[C@@H](O)[C@H]1O [RC4, reference compound] | 5.28 µM | 0.63 µM | 10.6 µM | 0.97 µM | 5.09 µM | 5.3 µM | – | – | – | – | – | –
19 | Cc1ncnc2c1ccn2[C@@H]1O[C@H](CO)[C@@H](O)[C@H]1O [RC5, 4-Methyl-7-(β-D-ribofuranosyl)-7H-pyrrolo[2,3-d]pyrimidine, reference compound] | – | – | – | – | – | – | 0.01 µM | 0.01 µM | 0.02 µM | 0.02 µM | 0.06 µM | 0.07 µM

— patent publication US9586986B2, “Substituted 7-deazapurine ribonucleosides for therapeutic uses” (Institute of Organic Chemistry and Biochemistry ASCR, v.v.i., priority 2014, dated 2017)
